Assay: Dissolution and solvation thermodynamic functions (van't Hoff; solubility minus sublimation)
Format: physicochemical
Protocol: The dissolution thermodynamic parameters on the standard state were determined using mole fraction unitary units. […] Since the resulting solutions are very dilute, and their densities are very close to those of the pure solvents. The density values of the pure solvents were used in calculations (Table S1). […] The temperature dependences of the experimental solubility were treated mathematically by the van't Hoff equation, and the apparent solution enthalpies ΔHsol0 were determined as follows:(3) ∂(lnX2)/∂T=ΔHsol0/RT^2 […] Next, the apparent solution entropies ΔSsol0 were derived by the equation:(5) ΔGsol0=ΔHso[…] The solvation of one mole of the solute molecules in the solvent can be defined as the total change of the standard thermodynamic functions ( ΔGsolv0 , ΔHsolv0 , ΔSsolv0 ) of the compound upon transferring it from the gaseous phase (ideal gas; single molecules without interaction) into the solvent. The transfer process can be presented as the difference between the dissolution and sublimation thermodynamic functions by:(6) ΔYsolv0=ΔYso[…] where ΔY^0 is the standard change of any of the thermodynamic functions (ΔG^0, ΔH^0, ΔS^0) of solvation ( ΔYsolv0 ), dissolution ( ΔYsol0 ) or sublimation ( ΔYsubo ).

[1] = Table S6, 1-octanol, all studied temperatures
[2] = Table S6, ethanol, all studied temperatures
[3] = Table S6, n-hexane, all studied temperatures
[4] = Table S6, water, all studied temperatures

CC(O)(CS(=O)(=O)c1ccc(F)cc1)C(=O)Nc1ccc(C#N)c(C(F)(F)F)c1 (centres unmarked) [BCL, bicalutamide]
TΔSsol0 (1-octanol, 298.15 K): 0.263 kcal/mol | ΔGsol0 (1-octanol, 298.15 K): 4.9 kcal/mol | ΔHsol0 (1-octanol, 298.15 K): 5.16 ± 0.096 kcal/mol | ΔSsol0 (1-octanol, 298.15 K): 3.7 ± 3.6 J∙mol^−1·K^−1 | ζHsolv (1-octanol, 298.15 K): 63.3% | ζTSsolv (1-octanol, 298.15 K): 36.7% | −TΔSsolv0 (1-octanol, 298.15 K): 14.3 kcal/mol | −ΔGsolv0 (1-octanol, 298.15 K): 10.3 kcal/mol | −ΔHsolv0 (1-octanol, 298.15 K): 24.64 kcal/mol | −ΔSsolv0 (1-octanol, 298.15 K): 200.9 J∙mol^−1·K^−1 | TΔSsol0 (Table S6, 1-octanol, 293.15 K): 0.265 kcal/mol | ΔGsol0 (Table S6, 1-octanol, 293.15 K): 4.897 kcal/mol | ΔSsol0 (Table S6, 1-octanol, 293.15 K): 3.79 J∙mol-1·K-1 | ζTSsolv (Table S6, 1-octanol, 293.15 K): 36.74% | −TΔSsolv0 (Table S6, 1-octanol, 293.15 K): 14.31 kcal/mol | −ΔGsolv0 (Table S6, 1-octanol, 293.15 K): 10.33 kcal/mol | TΔSsol0 (Table S6, 1-octanol, 298.15 K): 0.265 kcal/mol | ΔGsol0 (Table S6, 1-octanol, 298.15 K): 4.897 kcal/mol | ΔSsol0 (Table S6, 1-octanol, 298.15 K): 3.73 J∙mol-1·K-1 | ζTSsolv (Table S6, 1-octanol, 298.15 K): 36.74% | −TΔSsolv0 (Table S6, 1-octanol, 298.15 K): 14.31 kcal/mol | −ΔGsolv0 (Table S6, 1-octanol, 298.15 K): 10.33 kcal/mol | −ΔSsolv0 (Table S6, 1-octanol, 298.15 K): 200.87 J∙mol-1·K-1 | TΔSsol0 (Table S6, 1-octanol, 303.15 K): 0.275 kcal/mol | ΔGsol0 (Table S6, 1-octanol, 303.15 K): 4.888 kcal/mol | ΔSsol0 (Table S6, 1-octanol, 303.15 K): 3.81 J∙mol-1·K-1 | ζHsolv (Table S6, 1-octanol, 303.15 K): 63.27% | ζTSsolv (Table S6, 1-octanol, 303.15 K): 36.73% | −TΔSsolv0 (Table S6, 1-octanol, 303.15 K): 14.3 kcal/mol | −ΔGsolv0 (Table S6, 1-octanol, 303.15 K): 10.34 kcal/mol | TΔSsol0 (Table S6, 1-octanol, 308.15 K): 0.272 kcal/mol | ΔGsol0 (Table S6, 1-octanol, 308.15 K): 4.89 kcal/mol | ΔSsol0 (Table S6, 1-octanol, 308.15 K): 3.70 J∙mol-1·K-1 | ζHsolv (Table S6, 1-octanol, 308.15 K): 63.27% | ζTSsolv (Table S6, 1-octanol, 308.15 K): 36.73% | −TΔSsolv0 (Table S6, 1-octanol, 308.15 K): 14.31 kcal/mol | −ΔGsolv0 (Table S6, 1-octanol, 308.15 K): 10.33 kcal/mol | TΔSsol0 (Table S6, 1-octanol, 313.15 K): 0.287 kcal/mol | ΔGsol0 (Table S6, 1-octanol, 313.15 K): 4.876 kcal/mol | ΔSsol0 (Table S6, 1-octanol, 313.15 K): 3.82 J∙mol-1·K-1 | ζHsolv (Table S6, 1-octanol, 313.15 K): 63.29% | −ΔSsolv0 (Table S6, 1-octanol, 313.15 K): 190.96 J∙mol-1·K-1 | ΔHsol0 [1]: 5.16 kcal/mol | −ΔHsolv0 [1]: 24.64 kcal/mol | TΔSsol0 (Table S6, ethanol, 293.15 K): 2.964 kcal/mol | ΔGsol0 (Table S6, ethanol, 293.15 K): 3.944 kcal/mol | ΔSsol0 (Table S6, ethanol, 293.15 K): 42.29 J∙mol-1·K-1 | ζHsolv (Table S6, ethanol, 293.15 K): 66.34% | TΔSsol0 (Table S6, ethanol, 298.15 K): 3.023 kcal/mol | ΔGsol0 (Table S6, ethanol, 298.15 K): 3.872 kcal/mol | ΔSsol0 (Table S6, ethanol, 298.15 K): 42.43 J∙mol-1·K-1 | ζTSsolv (Table S6, ethanol, 298.15 K): 33.54% | −ΔGsolv0 (Table S6, ethanol, 298.15 K): 11.34 kcal/mol | TΔSsol0 (Table S6, ethanol, 303.15 K): 3.081 kcal/mol | ΔGsol0 (Table S6, ethanol, 303.15 K): 3.826 kcal/mol | ΔSsol0 (Table S6, ethanol, 303.15 K): 42.52 J∙mol-1·K-1 | ζTSsolv (Table S6, ethanol, 303.15 K): 33.43% | −TΔSsolv0 (Table S6, ethanol, 303.15 K): 11.5 kcal/mol | −ΔGsolv0 (Table S6, ethanol, 303.15 K): 11.4 kcal/mol | −ΔSsolv0 (Table S6, ethanol, 303.15 K): 158.70 J∙mol-1·K-1 | TΔSsol0 (Table S6, ethanol, 308.15 K): 3.136 kcal/mol | ΔGsol0 (Table S6, ethanol, 308.15 K): 3.772 kcal/mol | ΔSsol0 (Table S6, ethanol, 308.15 K): 42.56 J∙mol-1·K-1 | ζTSsolv (Table S6, ethanol, 308.15 K): 33.32% | −TΔSsolv0 (Table S6, ethanol, 308.15 K): 11.44 kcal/mol | −ΔGsolv0 (Table S6, ethanol, 308.15 K): 11.45 kcal/mol | TΔSsol0 (Table S6, ethanol, 313.15 K): 3.162 kcal/mol | ΔGsol0 (Table S6, ethanol, 313.15 K): 3.745 kcal/mol | ΔSsol0 (Table S6, ethanol, 313.15 K): 42.24 J∙mol-1·K-1 | ζTSsolv (Table S6, ethanol, 313.15 K): 33.27% | −TΔSsolv0 (Table S6, ethanol, 313.15 K): 11.42 kcal/mol | −ΔGsolv0 (Table S6, ethanol, 313.15 K): 11.48 kcal/mol | ΔHsol0 [2]: 6.91 kcal/mol | −ΔHsolv0 [2]: 22.9 kcal/mol | TΔSsol0 (Table S6, n-hexane, 293.15 K): 3.537 kcal/mol | ΔGsol0 (Table S6, n-hexane, 293.15 K): 8.222 kcal/mol | ζTSsolv (Table S6, n-hexane, 293.15 K): 37.96% | TΔSsol0 (Table S6, n-hexane, 298.15 K): 3.59 kcal/mol | ΔGsol0 (Table S6, n-hexane, 298.15 K): 8.174 kcal/mol | ΔSsol0 (Table S6, n-hexane, 298.15 K): 50.70 J∙mol-1·K-1 | ζHsolv (Table S6, n-hexane, 298.15 K): 62.20% | −TΔSsolv0 (Table S6, n-hexane, 298.15 K): 10.97 kcal/mol | −ΔSsolv0 (Table S6, n-hexane, 298.15 K): 153.88 J∙mol-1·K-1 | TΔSsol0 (Table S6, n-hexane, 303.15 K): 3.681 kcal/mol | ΔGsol0 (Table S6, n-hexane, 303.15 K): 8.078 kcal/mol | ΔSsol0 (Table S6, n-hexane, 303.15 K): 50.81 J∙mol-1·K-1 | ζTSsolv (Table S6, n-hexane, 303.15 K): 37.65% | −ΔSsolv0 (Table S6, n-hexane, 303.15 K): 150.42 J∙mol-1·K-1 | TΔSsol0 (Table S6, n-hexane, 308.15 K): 3.738 kcal/mol | ΔGsol0 (Table S6, n-hexane, 308.15 K): 8.021 kcal/mol | ΔSsol0 (Table S6, n-hexane, 308.15 K): 50.75 J∙mol-1·K-1 | ζTSsolv (Table S6, n-hexane, 308.15 K): 37.53% | −TΔSsolv0 (Table S6, n-hexane, 308.15 K): 10.84 kcal/mol | −ΔGsolv0 (Table S6, n-hexane, 308.15 K): 7.204 kcal/mol | −ΔSsolv0 (Table S6, n-hexane, 308.15 K): 147.20 J∙mol-1·K-1 | TΔSsol0 (Table S6, n-hexane, 313.15 K): 3.793 kcal/mol | ΔGsol0 (Table S6, n-hexane, 313.15 K): 7.966 kcal/mol | ζTSsolv (Table S6, n-hexane, 313.15 K): 37.41% | −TΔSsolv0 (Table S6, n-hexane, 313.15 K): 10.79 kcal/mol | −ΔGsolv0 (Table S6, n-hexane, 313.15 K): 7.259 kcal/mol | TΔSsol0 (Table S6, n-hexane, 318.15 K): 3.841 kcal/mol | ΔGsol0 (Table S6, n-hexane, 318.15 K): 7.918 kcal/mol | ΔSsol0 (Table S6, n-hexane, 318.15 K): 50.50 J∙mol-1·K-1 | ζHsolv (Table S6, n-hexane, 318.15 K): 62.69% | −TΔSsolv0 (Table S6, n-hexane, 318.15 K): 10.74 kcal/mol | −ΔGsolv0 (Table S6, n-hexane, 318.15 K): 7.306 kcal/mol | −ΔSsolv0 (Table S6, n-hexane, 318.15 K): 141.22 J∙mol-1·K-1 | ΔHsol0 [3]: 11.8 kcal/mol | −ΔHsolv0 [3]: 18 kcal/mol | ζHsolv (Table S6, water, 293.15 K): 58.17% | ζHsolv (Table S6, water, 298.15 K): 58.17% | −ΔSsolv0 (Table S6, water, 298.15 K): 211.97 J∙mol-1·K-1 | ζHsolv (Table S6, water, 303.15 K): 58.17% | ζHsolv (Table S6, water, 308.15 K): 58.13% | −TΔSsolv0 (Table S6, water, 308.15 K): 15.13 kcal/mol | −ΔGsolv0 (Table S6, water, 308.15 K): 5.877 kcal/mol | −ΔSsolv0 (Table S6, water, 308.15 K): 205.45 J∙mol-1·K-1 | ζHsolv (Table S6, water, 313.15 K): 58.12% | −TΔSsolv0 (Table S6, water, 313.15 K): 15.14 kcal/mol | −ΔGsolv0 (Table S6, water, 313.15 K): 5.872 kcal/mol | ΔHsol0 [4]: 8.8 kcal/mol | −ΔHsolv0 [4]: 21 kcal/mol | TΔSsol0 (ethanol, 298.15 K): 3.04 kcal/mol | ΔGsol0 (ethanol, 298.15 K): 3.87 kcal/mol | ΔHsol0 (ethanol, 298.15 K): 6.91 ± 0.22 kcal/mol | ΔSsol0 (ethanol, 298.15 K): 42.6 ± 5.1 J∙mol^−1·K^−1 | ζHsolv (ethanol, 298.15 K): 66.5% | ζTSsolv (ethanol, 298.15 K): 33.5% | −TΔSsolv0 (ethanol, 298.15 K): 11.5 kcal/mol | −ΔGsolv0 (ethanol, 298.15 K): 11.4 kcal/mol | −ΔHsolv0 (ethanol, 298.15 K): 22.9 kcal/mol | −ΔSsolv0 (ethanol, 298.15 K): 162.0 J∙mol^−1·K^−1 | TΔSsol0 (n-hexane, 298.15 K): 3.59 kcal/mol | ΔGsol0 (n-hexane, 298.15 K): 8.17 kcal/mol | ΔHsol0 (n-hexane, 298.15 K): 11.8 ± 0.17 kcal/mol | ΔSsol0 (n-hexane, 298.15 K): 50.3 ± 3.4 J∙mol^−1·K^−1 | ζHsolv (n-hexane, 298.15 K): 62.1% | ζTSsolv (n-hexane, 298.15 K): 37.9% | −TΔSsolv0 (n-hexane, 298.15 K): 11 kcal/mol | −ΔGsolv0 (n-hexane, 298.15 K): 7.05 kcal/mol | −ΔHsolv0 (n-hexane, 298.15 K): 18 kcal/mol | −ΔSsolv0 (n-hexane, 298.15 K): 154.3 J∙mol^−1·K^−1 | TΔSsol0 (water, 298.15 K): -0.526 kcal/mol | ΔGsol0 (water, 298.15 K): 9.32 kcal/mol | ΔHsol0 (water, 298.15 K): 8.8 ± 0.14 kcal/mol | ΔSsol0 (water, 298.15 K): −7.4 ± 0.3 J∙mol^−1·K^−1 | ζHsolv (water, 298.15 K): 58.2% | ζTSsolv (water, 298.15 K): 41.8% | −TΔSsolv0 (water, 298.15 K): 15.1 kcal/mol | −ΔGsolv0 (water, 298.15 K): 5.9 kcal/mol | −ΔHsolv0 (water, 298.15 K): 21 kcal/mol | −ΔSsolv0 (water, 298.15 K): 212.0 J∙mol^−1·K^−1
